As a reminder, the MIC is the lowest concentration that inhibits growth of the organism.

For ten compounds, MIC results are on record in DBAASP.

≈ marks a conversion by molar mass, not a printed value.

Test systems include Proteus mirabilis; Klebsiella pneumoniae; Pseudomonas aeruginosa; Bacillus subtilis; Shigella dysenteriae; Micrococcus luteus; Staphylococcus aureus; Salmonella typhimurium; Escherichia coli; Escherichia coli JW0013; Escherichia coli BL21.
Common to all, as to experiment: ≥ marks a high value that may be exact or a test limit, other limits are often not marked, values filed in µg/mL are converted to µM
Assay [1] deals with Staphylococcus epidermidis.
The test system of assay [2] is Clavibacter michiganensis subsp. michiganensis DSM 46294.
The test system of assay [3] is Pseudomonas syringae pv. tomato DC3000.
In assay [4] the test system is Pectobacterium carotovorum subsp. carotovorum DSM 30168.
In assay [5] the test system is Xanthomonas vesicatoria DSM 50861.
Assay [6] concerns Pseudomonas syringae pv. syringae DSM 10604.
Assay [7] deals with Pseudomonas corrugata DSM 7228.
Assay [8] has as its system Pseudomonas aeruginosa PAO1.

For `CC(C)C[C@H](NC(=O)[C@H](C)NC(=O)CNC(=O)[C@H](CC(C)C)NC(=O)[C@@H](N)Cc1ccccc1)C(=O)N[C@@H](Cc1ccccc1)C(=O)N[C@@H](CCCCN)C(=O)N[C@@H](CCCCN)C(=O)N[C@@H](C)C(=O)N[C@@H](CO)C(=O)N[C@@H](CCCCN)C(=O)O` [FLGALFKKASK], the MIC was at least 165 µM in the assay on Proteus mirabilis; over 165 µM in the assay on Klebsiella pneumoniae; over 165 µM against Pseudomonas aeruginosa; at least 82.7 µM in the assay with Bacillus subtilis; at least 165 µM against Shigella dysenteriae; at least 165 µM in assay [1]. Also, the MIC is 10.3 µM (≈ 12.5 µg/mL) against Micrococcus luteus, 165 µM (≈ 200 µg/mL) in the assay with Staphylococcus aureus, at least 165 µM in the assay with Salmonella typhimurium and over 165 µM with Escherichia coli.

Turning to `CC(C)C[C@H](NC(=O)[C@H](C)NC(=O)CNC(=O)[C@H](CC(C)C)NC(=O)[C@@H](N)Cc1ccccc1)C(=O)N[C@@H](Cc1ccccc1)C(=O)N[C@@H](CCCCN)C(=O)N[C@H](C(=O)N[C@@H](C)C(=O)O)C(C)C` [FLGALFKVA], the MIC is at least 207 µM with Proteus mirabilis; over 207 µM in the assay with Klebsiella pneumoniae; over 207 µM against Pseudomonas aeruginosa; at least 207 µM against Bacillus subtilis; at least 207 µM with Shigella dysenteriae; at least 207 µM in assay [1]. Further, the MIC in the assay on Micrococcus luteus was at least 207 µM; with Staphylococcus aureus it was over 207 µM; in the assay with Salmonella typhimurium, at least 207 µM; in the assay with Escherichia coli, over 207 µM.

Turning to `CC(C)C[C@H](NC(=O)[C@H](C)NC(=O)CNC(=O)[C@H](CC(C)C)NC(=O)[C@@H](N)Cc1ccccc1)C(=O)N[C@@H](Cc1c[nH]c2ccccc12)C(=O)N[C@@H](CCCCN)C(=O)N[C@H](C(=O)N[C@@H](C)C(=O)N[C@@H](CO)C(=O)N[C@@H](CCCCN)C(=O)O)C(C)C` [FLGALWKVASK], the MIC was at least 164 µM in the assay with Proteus mirabilis; 82 µM (≈ 100 µg/mL) against Klebsiella pneumoniae; over 164 µM in the assay on Pseudomonas aeruginosa; at least 164 µM in the assay on Bacillus subtilis; at least 164 µM against Shigella dysenteriae; at least 164 µM in assay [1]. Further, the MIC with Micrococcus luteus was at least 164 µM; in the assay with Staphylococcus aureus, 82 µM (≈ 100 µg/mL); against Salmonella typhimurium, at least 164 µM; against Escherichia coli, 164 µM (≈ 200 µg/mL).

On to `CC[C@H](C)[C@H](NC(=O)[C@H](CCCN=C(N)N)NC(=O)[C@H](CCCN=C(N)N)NC(=O)[C@@H]1CCCN1C(=O)[C@@H]1CCCN1C(=O)[C@H](CCCN=C(N)N)NC(=O)[C@@H]1CCCN1C(=O)[C@H](CCCN=C(N)N)NC(=O)[C@@H]1CCCN1C(=O)[C@H](CC(C)C)NC(=O)[C@H](Cc1ccc(O)cc1)NC(=O)[C@@H]1CCCN1C(=O)[C@@H]1CCCN1C(=O)[C@H](CCCCN)NC(=O)[C@H](CC(=O)O)NC(=O)[C@@H](N)CCCCN)C(=O)N[C@@H](Cc1ccc(O)cc1)C(=O)N[C@@H](CC(N)=O)C(=O)N[C@@H](CCCN=C(N)N)C(N)=O` [KDKPPYLPRPRPPRRIYNR], for which the MIC with Escherichia coli JW0013 came to 1.98 µM (≈ 4.8 µg/mL).

Take `NCCCC[C@H](NC(=O)[C@H](Cc1ccccc1)NC(=O)[C@H](Cc1ccccc1)NC(=O)[C@H](CCCCN)NC(=O)[C@H](Cc1ccccc1)NC(=O)[C@H](CCCCN)NC(=O)[C@H](CCCCN)NC(=O)[C@H](CCCCN)NC(=O)[C@@H](N)CCCN=C(N)N)C(=O)N[C@@H](CCCN=C(N)N)C(=O)N[C@@H](Cc1ccccc1)C(=O)N[C@@H](Cc1ccccc1)C(N)=O` [RKKKFKFFKRFF]: the MIC came out at 0.146 µM (≈ 0.25 µg/mL) in [2]; 1.46 µM (≈ 2.5 µg/mL) in assay [3]; 5.86 µM (≈ 9.99 µg/mL) in assay [4]; 0.293 µM (≈ 0.5 µg/mL) in assay [5]; 0.0586 µM (≈ 0.1 µg/mL) in assay [6]; 0.0586 µM (≈ 0.1 µg/mL) in assay [7].

Compound `CC[C@H](C)[C@H](NC(=O)[C@H](CCCN=C(N)N)NC(=O)[C@H](CCCN=C(N)N)NC(=O)[C@@H]1CCCN1C(=O)[C@@H]1CCCN1C(=O)[C@H](CCCN=C(N)N)NC(=O)[C@@H]1CCCN1C(=O)[C@H](CCCN=C(N)N)NC(=O)[C@@H]1CCCN1C(=O)[C@H](CC(C)C)NC(=O)[C@H](Cc1ccc(O)cc1)NC(=O)[C@H](CC(N)=O)NC(=O)[C@@H]1CCCN1C(=O)[C@H](CCCCN)NC(=O)[C@H](CC(=O)O)NC(=O)[C@@H](N)C(C)C)C(=O)N[C@@H](Cc1ccc(O)cc1)C(=O)N[C@@H](CC(N)=O)C(=O)N[C@@H](CCCN=C(N)N)C(N)=O` [VDKPNYLPRPRPPRRIYNR] showed an MIC in the assay with Escherichia coli JW0013 of 1.99 µM (≈ 4.8 µg/mL).

In the case of `CC[C@H](C)[C@H](NC(=O)[C@H](CCCN=C(N)N)NC(=O)[C@H](CCCN=C(N)N)NC(=O)[C@@H]1CCCN1C(=O)[C@@H]1CCCN1C(=O)[C@H](CCCN=C(N)N)NC(=O)[C@@H]1CCCN1C(=O)[C@H](CCCN=C(N)N)NC(=O)[C@@H]1CCCN1C(=O)[C@H](CC(C)C)NC(=O)[C@H](Cc1ccc(O)cc1)NC(=O)[C@@H]1CCCN1C(=O)[C@H](CCC(N)=O)NC(=O)[C@H](CCCCN)NC(=O)[C@H](CC(=O)O)NC(=O)[C@@H](N)C(C)C)C(=O)N[C@@H](Cc1ccc(O)cc1)C(=O)N[C@@H](CC(N)=O)C(=O)N[C@@H](CCCN=C(N)N)C(N)=O` [VDKQPYLPRPRPPRRIYNR], in the assay with Escherichia coli JW0013, the MIC stood at 1.28 µM (≈ 3.1 µg/mL).

As to `CC[C@H](C)[C@H](NC(=O)[C@H](CCCN=C(N)N)NC(=O)[C@H](CCCN=C(N)N)NC(=O)[C@@H]1CCCN1C(=O)[C@@H]1CCCN1C(=O)[C@H](CCCN=C(N)N)NC(=O)[C@@H]1CCCN1C(=O)[C@H](CCCN=C(N)N)NC(=O)[C@@H]1CCCN1C(=O)[C@H](CCCCN)NC(=O)[C@H](Cc1ccc(O)cc1)NC(=O)[C@H](Cc1cnc[nH]1)NC(=O)[C@H](CCCN=C(N)N)NC(=O)[C@H](CCCCN)NC(=O)[C@H](CC(=O)O)NC(=O)[C@@H](N)C(C)C)C(=O)N[C@@H](Cc1ccc(O)cc1)C(=O)N[C@@H](CC(N)=O)C(=O)N[C@@H](CCCN=C(N)N)C(N)=O` [VDKRHYKPRPRPPRRIYNR], the MIC in the assay on Escherichia coli JW0013 amounted to 0.519 µM (≈ 1.3 µg/mL).

The compound `CC[C@H](C)[C@H](NC(=O)[C@H](CCCN=C(N)N)NC(=O)[C@H](CCCN=C(N)N)NC(=O)[C@@H]1CCCN1C(=O)[C@@H]1CCCN1C(=O)[C@H](CCCN=C(N)N)NC(=O)[C@@H]1CCCN1C(=O)[C@H](CCCN=C(N)N)NC(=O)[C@@H]1CCCN1C(=O)[C@H](CC(C)C)NC(=O)[C@H](Cc1ccc(O)cc1)NC(=O)[C@H](Cc1cnc[nH]1)NC(=O)[C@H](CCCN=C(N)N)NC(=O)[C@H](CCCCN)NC(=O)[C@H](CC(=O)O)NC(=O)[C@@H](N)C(C)C)C(=O)N[C@@H](Cc1ccc(O)cc1)C(=O)N[C@@H](CC(N)=O)C(=O)N[C@@H](CCCN=C(N)N)C(N)=O` [VDKRHYLPRPRPPRRIYNR] gave an MIC in the assay on Escherichia coli JW0013 of 0.683 µM (≈ 1.7 µg/mL).

`CC[C@H](C)[C@H](NC(=O)[C@H](C)NC(=O)[C@H](Cc1ccccc1)NC(=O)[C@H](CCCCN)NC(=O)[C@@H](N)C(C)C)C(=O)N[C@@H](CCCCN)C(=O)N[C@@H](CCCCN)C(=O)N[C@H](C(=O)NCC(=O)N[C@@H](CCCCN)C(=O)N[C@@H](CCCCN)C(=O)N[C@@H](C)C(=O)N[C@@H](C)C(=O)N[C@@H](CCCCN)C(=O)N[C@@H](CCCCN)C(=O)N[C@H](C(=O)N[C@H](C(=O)N[C@H](C(=O)N[C@@H](CCCCN)C(=O)N[C@@H](C)C(=O)O)C(C)C)[C@@H](C)CC)C(C)C)[C@@H](C)CC` [VKFAIKKIGKKAAKKVIVKA]: the results for the MIC (in assay [8]; in the assay on Escherichia coli BL21) were 32 µM (≈ 69.4 µg/mL) and at least 128 µM, respectively.
